The values that follow come from patent US11046680B1, “Heteroaryl-substituted triazoles as APJ receptor agonists” (priority 2016, dated 2021).

For this assay, the target named is human APJ receptor (Homo sapiens (Human), UniProt P35414). The experiment in a line: biochemical. Conditions: [35S]GTPγS binding, CHO membranes expressing human APJ receptor; read-out: Activity hAPJ SPA EC50 IP. It is filed as biochemical. On the procedure: The human APJ receptor was cloned by polymerase chain reaction and the gene encoding the receptor was subcloned in pFLAG-CMV™-3 expression vector (Sigma, Saint Louis, Mo. USA) in-house at Amgen. A GTPγS binding assay was performed on membranes prepared from CHO cells stably expressing human APJ receptor. The optimum experimental conditions for the concentrations of GDP, MgCl2, and NaCl in the assay buffer were initially determined. […] Incubation was at RT for 90 min and the microplate was read using a ViewLux™ ultra HTS Microplate Imager (PerkinElmer, Inc.).
human APJ receptor, sequence (P35414 whole entry): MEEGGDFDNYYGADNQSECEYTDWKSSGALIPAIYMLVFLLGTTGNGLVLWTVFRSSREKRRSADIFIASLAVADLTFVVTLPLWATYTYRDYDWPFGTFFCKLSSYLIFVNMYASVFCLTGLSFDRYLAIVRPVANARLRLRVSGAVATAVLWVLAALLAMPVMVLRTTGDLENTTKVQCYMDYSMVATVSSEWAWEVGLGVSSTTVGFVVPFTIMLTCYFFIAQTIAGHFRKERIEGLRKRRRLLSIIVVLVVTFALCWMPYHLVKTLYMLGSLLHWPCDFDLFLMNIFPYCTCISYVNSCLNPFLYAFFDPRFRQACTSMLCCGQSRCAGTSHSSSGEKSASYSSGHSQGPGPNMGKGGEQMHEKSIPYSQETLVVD
One may read the EC50 as the concentration giving half of the maximal effect. `COc1ncnc(OC)c1-n1c(NS(=O)(=O)[C@@H](C)[C@H](C)c2ncc(Cl)cn2)nnc1-c1ccn(C)n1` [Example 294.0, (2S,3R)-3-(5-chloro-2-pyrimidinyl)-N-(4-(4,6-dimethoxy-5-pyrimidinyl)-5-(1-methyl-1H-pyrazol-3-yl)-4H-1,2,4-triazol-3-yl)-2-butanesulfonamide]: the EC50 was found to be 0.49 nM.

Turning to `COc1cccc(OC)c1-n1c(NS(=O)(=O)[C@@H](C)[C@H](OC)c2ncc(F)cn2)nnc1-c1cc(C)[nH]n1` [Example 345.0, (1R,2S)-N-(4-(2,6-dimethoxyphenyl)-5-(5-methyl-1H-pyrazol-3-yl)-4H-1,2,4-triazol-3-yl)-1-(5-fluoro-2-pyrimidinyl)-1-methoxy-2-propanesulfonamide], the EC50 was determined as 8.1 nM.

Take `COc1ccccc1-n1c(NS(=O)(=O)CCc2ccc(Cl)cc2)nnc1-c1ccc(F)s1` [Example 239.0, 2-(4-chlorophenyl)-N-(5-(5-fluorothiophen-2-yl)-4-(2-methoxyphenyl)-4H-1,2,4-triazol-3-yl)ethanesulfonamide]: the EC50 worked out at 210 nM.

With `CCc1csc(-c2nnc(NS(=O)(=O)[C@H](C)Cc3ncc(F)cn3)n2-c2c(OC)cccc2OC)n1` [Example 106.0], the EC50 worked out at 21 nM.

For `COc1cccc(OC)c1-n1c(NS(=O)(=O)[C@@H](C)[C@@H](OC(C)C)c2ncc(F)cn2)nnc1-c1cnn2c1CCC2` [Example 482.0, (1S,2S)-N-(5-(5,6-dihydro-4H-pyrrolo[1,2-b]pyrazol-3-yl)-4-(2,6-dimethoxyphenyl)-4H-1,2,4-triazol-3-yl)-1-(5-fluoropyrimidin-2-yl)-1-isopropoxypropane-2-sulfonamide], the EC50 came to 0.38 nM.

With `COc1cccc(OC)c1-n1c(NS(=O)(=O)[C@@H](C)[C@H](OC)c2ncc(Cl)cn2)nnc1-c1ncnc2cc[nH]c12` [Example 434.0, (1R,2S)-1-(5-chloropyrimidin-2-yl)-N-(4-(2,6-dimethoxyphenyl)-5-(5H-pyrrolo[3,2-d]pyrimidin-4-yl)-4H-1,2,4-triazol-3-yl)-1-methoxypropane-2-sulfonamide], the EC50 was determined as 8.6 nM.

As for `COc1cnc([C@@H](C)[C@H](C)S(=O)(=O)Nc2nnc(-c3ccn(C)n3)n2-c2c(OC)ncnc2OC)cn1` [Example 292.0, (2S,3R)-N-(4-(4,6-dimethoxy-5-pyrimidinyl)-5-(1-methyl-1H-pyrazol-3-yl)-4H-1,2,4-triazol-3-yl)-3-(5-methoxy-2-pyrazinyl)-2-butanesulfonamide], the EC50 was 1.2 nM.

`CCO[C@H](c1ncc(C)cn1)[C@H](C)S(=O)(=O)Nc1nnc(-c2ccn(C(F)F)n2)n1-c1c(OC)cccc1OC` [Example 199.0, (1R,2S)-N-(5-(1-(difluoromethyl)-1H-pyrazol-3-yl)-4-(2,6-dimethoxyphenyl)-4H-1,2,4-triazol-3-yl)-1-ethoxy-1-(5-methyl-2-pyrimidinyl)-2-propanesulfonamide]: the EC50 was 0.26 nM.

On to `COc1nc[nH]c(=O)c1-n1c(NS(=O)(=O)[C@@H](C)Cc2ncc(F)cn2)nnc1-c1ccn(C)n1` (racemic) [Example 7.0, (2R)-1-(5-fluoro-2-pyrimidinyl)-N-(4-(4-methoxy-6-oxo-1,6-dihydro-5-pyrimidinyl)-5-(1-methyl-1H-pyrazol-3-yl)-4H-1,2,4-triazol-3-yl)-2-propanesulfonamide and (2S)-1-(5-fluoro-2-pyrimidinyl)-N-(4-(4-methoxy-6-oxo-1,6-dihydro-5-pyrimidinyl)-5-(1-methyl-1H-pyrazol-3-yl)-4H-1,2,4-triazol-3-yl)-2-propanesulfonamide], for which the EC50 was found to be 51 nM.

With `COc1ccc([C@@H](C)[C@H](C)S(=O)(=O)Nc2nnc(-c3ccn(C)n3)n2-c2c(OC)ncnc2OC)nc1` [Example 458.0, (2S,3R)-N-(4-(4,6-dimethoxy-5-pyrimidinyl)-5-(1-methyl-1H-pyrazol-3-yl)-4H-1,2,4-triazol-3-yl)-3-(5-methoxy-2-pyridinyl)-2-butanesulfonamide], the EC50 amounted to 2.8 nM.

For the compound `COc1cccc(OC)c1-n1c(NS(=O)(=O)[C@@H](C)[C@H](OC)c2ncc(Cl)cn2)nnc1-c1cncc(C)n1` [Example 214.0, (1R,2S)-1-(5-chloro-2-pyrimidinyl)-N-(4-(2,6-dimethoxyphenyl)-5-(6-methyl-2-pyrazinyl)-4H-1,2,4-triazol-3-yl)-1-methoxy-2-propanesulfonamide], the EC50 worked out at 0.4 nM.

Turning to “(1R,2S)-N-(4-(2,6-dimethoxyphenyl)-5-(1-methyl-1H-pyrazol-3-yl)-4H-1,2,4-triazol-3-yl)-1-(5-fluoro-2-pyridinyl)-1-hydroxy-2-propanesulfonamide and (1S,2R)-N-(4-(2,6-dimethoxyphenyl)-5-(1-methyl-1H-pyrazol-3-yl)-4H-1,2,4-triazol-3-yl)-1-(5-fluoro-2-pyridinyl)-1-hydroxy-2-propanesulfonamide [Example 24.0]”, the EC50 was determined as 0.18 nM.

As for `COc1cncc(-c2nnc(NS(=O)(=O)[C@@H](C)[C@H](C)c3ncc(C)cn3)n2-c2c(OC)cccc2OC)n1` [Example 202.0, (2S,3R)-N-(4-(2,6-dimethoxyphenyl)-5-(6-methoxy-2-pyrazinyl)-4H-1,2,4-triazol-3-yl)-3-(5-methyl-2-pyrimidinyl)-2-butanesulfonamide], the EC50 came to 2.9 nM.

`COc1cccc(OC)c1-n1c(NS(=O)(=O)CCc2ccc(Cl)cc2)nnc1-c1ncc(Cl)s1` [Example 144.0, 2-(4-chlorophenyl)-N-(5-(5-chlorothiazol-2-yl)-4-(2,6-dimethoxyphenyl)-4H-1,2,4-triazol-3-yl)ethanesulfonamide]: the EC50 worked out at 330 nM.

For the compound “(R)-N-(4-(2,6-dimethoxyphenyl)-5-(pyrimidin-5-yl)-4H-1,2,4-triazol-3-yl)-1-(5-fluoropyrimidin-2-yl)propane-2-sulfonamide and (S)-N-(4-(2,6-dimethoxyphenyl)-5-(pyrimidin-5-yl)-4H-1,2,4-triazol-3-yl)-1-(5-fluoropyrimidin-2-yl)propane-2-sulfonamide [Example 48.0]”, the EC50 was 150 nM.

`COc1cccc(OC)c1-n1c(NS(=O)(=O)[C@H](C)[C@@H](C)c2ncc(C)cn2)nnc1-c1n[nH]c2ccccc12` [Example 431.0, (2R,3S)-N-(4-(2,6-dimethoxyphenyl)-5-(1H-indazol-3-yl)-4H-1,2,4-triazol-3-yl)-3-(5-methylpyrimidin-2-yl)butane-2-sulfonamide]: the EC50 came to 14 nM.

In the case of “(R)-N-(4-(2,6-dimethoxyphenyl)-5-(1,5-dimethyl-1H-pyrazol-3-yl)-4H-1,2,4-triazol-3-yl)-1-(5-fluoropyrimidin-2-yl)propane-2-sulfonamide and (S)-N-(4-(2,6-dimethoxyphenyl)-5-(1,5-dimethyl-1H-pyrazol-3-yl)-4H-1,2,4-triazol-3-yl)-1-(5-fluoropyrimidin-2-yl)propane-2-sulfonamide [Example 53.0]”, the EC50 was found to be 9.7 nM.

With `CNC(=O)n1ccc(-c2nnc(NS(=O)(=O)[C@@H](C)Cc3ncc(F)cn3)n2-c2c(OC)cccc2OC)n1` (single isomer, unassigned) [Example 73.0, (R)-3-(4-(2,6-dimethoxyphenyl)-5-(2-(5-fluoropyrimidin-2-yl)-1-methylethylsulfonamido)-4H-1,2,4-triazol-3-yl)-N-methyl-1H-pyrazole-1-carboxamide or (S)-3-(4-(2,6-dimethoxyphenyl)-5-(2-(5-fluoropyrimidin-2-yl)-1-methylethylsulfonamido)-4H-1,2,4-triazol-3-yl)-N-methyl-1H-pyrazole-1-carboxamide], the EC50 came out at 29 nM.

Take `COc1cccc(OC)c1-n1c(NS(=O)(=O)[C@@H](C)[C@H](OC)c2ncc(C)cn2)nnc1-c1cc2n(n1)CCC2` [Example 205.0, (1R,2S)-N-(5-(5,6-dihydro-4H-pyrrolo[1,2-b]pyrazol-2-yl)-4-(2,6-dimethoxyphenyl)-4H-1,2,4-triazol-3-yl)-1-methoxy-1-(5-methyl-2-pyrimidinyl)-2-propanesulfonamide]: the EC50 was determined as 3 nM.

With `COc1cnc([C@@H](C)[C@H](C)S(=O)(=O)Nc2nnc(-c3cnn4c3CCC4)n2-c2c(OC)cccc2OC)cn1` [Example 486.0, (2S,3R)-N-(5-(5,6-dihydro-4H-pyrrolo[1,2-b]pyrazo1-3-yl)-4-(2,6-dimethoxyphenyl)-4H-1,2,4-triazol-3-yl)-3-(5-methoxypyrazin-2-yl)butane-2-sulfonamide], the EC50 is 0.29 nM.

With `COc1cncc(-c2nnc(NS(=O)(=O)[C@@H](C)[C@H](OC)c3ncc(C)cn3)n2-c2c(OC)cccc2OC)n1` [Example 343.0, (1R,2S)-N-(4-(2,6-dimethoxyphenyl)-5-(6-methoxy-2-pyrazinyl)-4H-1,2,4-triazol-3-yl)-1-methoxy-1-(5-methyl-2-pyrimidinyl)-2-propanesulfonamide], the EC50 amounted to 2.6 nM.

As for `C[C@H](c1ncc(Cl)cn1)[C@H](C)S(=O)(=O)Nc1nnc(-c2ccn(C)n2)n1-c1c(F)cccc1F` [Example 228.0, (2S,3R)-3-(5-chloro-2-pyrimidinyl)-N-(4-(2,6-difluorophenyl)-5-(1-methyl-1H-pyrazol-3-yl)-4H-1,2,4-triazol-3-yl)-2-butanesulfonamide], the EC50 amounted to 4 nM.

Consider `COc1ncnc(OC)c1-n1c(NS(=O)(=O)[C@@H](C)[C@@H](OC(C)C)c2ncc(Cl)cn2)nnc1-c1ccn(C)n1` [Example 456.0, (1S,2S)-1-(5-chloro-2-pyrimidinyl)-N-(4-(4,6-dimethoxy-5-pyrimidinyl)-5-(1-methyl-1H-pyrazol-3-yl)-4H-1,2,4-triazol-3-yl)-1-(1-methylethoxy)-2-propanesulfonamide], for which the EC50 was 0.6 nM.

Take `COC[C@H](C)n1c(NS(=O)(=O)[C@@H](C)[C@H](C)c2ncc(Cl)cn2)nnc1-c1ccn(C)n1` [Example 533.0, (2S,3R)-3-(5-chloro-2-pyrimidinyl)-N-(4-((2S)-1-methoxy-2-propanyl)-5-(1-methyl-1H-pyrazol-3-yl)-4H-1,2,4-triazol-3-yl)-2-butanesulfonamide]: the EC50 worked out at 110 nM.
